“Also recorded” adds a separate entry of the source.
Experiments:
S. cerevisiae = assay: Two-color cDNA microarray expression profiling of mutant or compound-treated yeast cultures (300-experiment compendium) with hierarchical clustering; type: cell-based; details: for mutant in the affected pathway whose profile the profile caused by the inhibitory compound resembles / DNA-damage/S-phase arrest inducible RNR2, RNR3 and RNR4 transcripts: FIG. 9B; for clustering of treatment profile with profiles from cell wall related mutants gas1Δ, spf1Δ, and amp1Δ: FIG. 11A
Protocol: Experimental (mutant or chemically treated) cultures were grown, harvested and processed in parallel with corresponding wild-type or control cultures. A complete list of experimental conditions is provided, below, in Table 2.
Several colonies of similar size were picked from freshly-streaked YAPD agar plates into liquid Synthetic Complete medium (SC) with 2% glucose, grown overnight at 30° C. to mid-log phase, diluted to 0.4-1.0×10^6 cells/mL, and grown an addition 5-7 hours until reaching 0.4-1.0[…], at which point they were pelleted by centrifugation from 2 minutes at room temperature and frozen in liquid nitrogen. The final optical densities of experimental and control cultures were matched as closely as possible. For experiments involving treatments with chemical compounds (including doxycycline), compounds were added at the beginning of the 5-7 hour final groth phase, with equal amounts of solvent or doxycyline added to control cultures as appropriate. Total RNA was prepared by phenol:chloroform extraction followed by ethanol precipitation as described previously (see, e.g., Marton et al., 1998, Nat. Med. 4:1293-1301) except that the step vortexing with glass beads was replaced with a 10 minute incubation at 65° C. followed by 1 minute of vortexing. Poly-A+ RNA purification, cDNA labeling, microarray production, and microarray hybridization and washing were also done as previously described (e.g., in Marton et al., supra) with measurements taken in fluor-reversed pairs. Arrays were scanned, images were quantitated and physical artifacts such as dust and salt residue were edited as described previously (see, e.g., Marton et aL, supra). Resulting data files were evaluated by a series of quality-control criteria relating, first, to the image itself and, second, to known biological artifacts. For purposes of illustrating the impact of biases, experiments flagged as containing biological artifacts were noted by were not excluded from subsequent data analysis steps.
Clustering analysis of the perturbation response profiles was done as described, below, in Section 5.2.4. Specifically, the analysis comprised two steps. First, profiles and transcripts were selected from a data matrix and, second, experiments and responsive genes were grouped by agglomerative hierarchical clustering (see Hartigan, 1975, Clustering Algorithms, John Wiley & Sons, New York) where the similarity measure is the error-weighted correlation coefficient provided in Equation 11 below. Genes and experiments (i.e., columns and rows, respectively, of the data matrix) were then re-ordered according to the resulting clustering similarity trees. A statistical significance (i.e., a P-value) was also calculated for each bifurcation in the resulting cluster tree using the methods for determining statistical significance of cluster groups which are also described, below, in Section 5.2.4.
Using a two-color cDNA microarray hybridization assay (see, Schena et al., 1995, Science 270:467-470), three hundred expression profiles were generated in S. cerevisiae in which transcript levels of a mutant or compound-treated culture were compared to that of a wild-type or mock-treated culture. 276 deletion mutants, 11 tetracycline-regulatable alleles of essential genes (Gari et al., 1997, Yeast 13:837-848) and 13 well-characterized compounds were profile. Sixty-nine of the 276 deletions were of uncharacterized open reading frames (ORFs). To allow direct comparison of the behavior of all genes in response to all mutations and treatments, experiments were performed under a single condition: cells were grown at 30° C. in liquid synthetic complete SC) medium plus 2% glucose to mid-log phase, with the final optical densities of the experimental and control cultures closely matched (see Section 6.1 above). […]

yeast Erg2 enzyme = yeast Erg2 enzyme (Saccharomyces cerevisiae, UniProt P32352); details: cited from earlier work
wild type yeast cells = details: levels that give maximal repression of promoter activity (10 micrograms/nil); cited from earlier work
[1] = biological target: T1, Erg2p, the sterol C-8 isomerase (Saccharomyces cerevisiae, UniProt P32352); assay: Sterol profiles by gas chromatography of the nonsaponifiable fraction; type: cell-based, yeast; details: dyclonine-treated cells, FIG. 11F
T1 construct: endogenous in cells; host or cells: S. cerevisiae, Saccharomyces Genome Deletion Consortium strain background
Protocol: Sterols were identified using pure standards and on the basis of relative retention times. Nonsaponifiables were isolated from yeast as previously described (Molzahn and Woods, 1972, J Gen. Microbiol. 72:339-348). Gas chromatography (GC) analyses of the nonsaponifiable fraction were analyzed on a HP5890 series II GC equipped with the HP chemstation software. The capillary column (DB5) was 15 m×0.25 mm i.d., 0.2 μm film thickness and was programmed from 195 fC to 300 fC (195 fC for 3 min., 5.5 fC/min. to 300 fC then held for 10 min.). The linear velocity was 30 cm/s using nitrogen and the carrier gas and all injections were run in the splitless mode.

T1 sequence (P32352 whole entry): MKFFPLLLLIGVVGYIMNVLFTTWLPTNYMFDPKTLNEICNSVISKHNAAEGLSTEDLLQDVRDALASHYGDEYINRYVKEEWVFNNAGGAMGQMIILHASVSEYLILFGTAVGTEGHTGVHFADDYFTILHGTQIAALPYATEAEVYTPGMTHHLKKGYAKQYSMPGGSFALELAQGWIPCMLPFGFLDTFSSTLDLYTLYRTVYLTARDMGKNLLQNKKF
yeast Erg2 enzyme, sequence (P32352 whole entry): as above

## CC[C@H](C)C(=O)O[C@H]1C[C@@H](C)C=C2C=C[C@H](C)[C@H](CC[C@@H]3C[C@@H](O)CC(=O)O3)[C@H]21 [lovastatin]
S. cerevisiae; FIG. 9E
  correlation of transcript profile of compound treatment with profile of reduced expression of the target gene: correlates highly with the profile produced by reducing expression of HMG2

## C[C@@H]1C[C@@H]([C@H](O)CC2CC(=O)NC(=O)C2)C(=O)[C@@H](C)C1 [cycloheximide]
S. cerevisiae
  mutant in the affected pathway whose profile the profile caused by the inhibitory compound resembles: yef3
S. cerevisiae; all regulations greater than 1.5-fold masked, small regulations used as basis of clustering
  clustering of treatment profile with ribosome subunit deletion profiles: this profile cluster gains additional translation-related experiments

## O=C(CCCN1CCC(O)(c2ccc(Cl)cc2)CC1)c1ccc(F)cc1 [haloperidol]
Yeast Erg2 enzyme
  binding and inhibition of the yeast Erg2 enzyme: binds and inhibits

## O=CC[C@@H](O)[C@H](O)[C@H](O)CO [2-deoxy-D-glucose]
S. cerevisiae
  mutant in the affected pathway whose profile the profile caused by the inhibitory compound resembles: gas1
  clustering of treatment profile with profiles from cell wall related mutants gas1Δ, spf1Δ, and amp1Δ: form a discrete cluster together with

## C[C@H]1c2cccc(O)c2C(=O)C2=C(O)[C@]3(O)C(=O)C(C(N)=O)=C(O)[C@@H](N(C)C)[C@@H]3[C@@H](O)[C@@H]21 [doxycycline]
Wild type yeast cells
  effect on the growth rate on wild type yeast cells: no significant effect

## NC(=O)NO [hydroxyurea]
S. cerevisiae
  DNA-damage/S-phase arrest inducible RNR2, RNR3 and RNR4 transcripts: induced
  mutant in the affected pathway whose profile the profile caused by the inhibitory compound resembles: rnr1

## COS(C)(=O)=O [MMS]
S. cerevisiae
  DNA-damage/S-phase arrest inducible RNR2, RNR3 and RNR4 transcripts: induced

## C/C=C1\NC(=O)[C@H]2CSSCC/C=C/[C@H](CC(=O)N[C@H](C(C)C)C(=O)N2)OC(=O)[C@H](C(C)C)NC1=O [FR901,228]
S. cerevisiae
  mutant in the affected pathway whose profile the profile caused by the inhibitory compound resembles: rpd3

## CCC(C)n1ncn(-c2ccc(N3CCN(c4ccc(OCC5COC(Cn6cncn6)(c6ccc(Cl)cc6Cl)O5)cc4)CC3)cc2)c1=O (stereo not shown) [itraconzaole]
S. cerevisiae
  mutant in the affected pathway whose profile the profile caused by the inhibitory compound resembles: erg/11

## tunicamycin
S. cerevisiae
  mutant in the affected pathway whose profile the profile caused by the inhibitory compound resembles: gas1
  clustering of treatment profile with profiles from cell wall related mutants gas1Δ, spf1Δ, and amp1Δ: form a discrete cluster together with

## N[C@H]1C(O)O[C@H](CO)[C@@H](O)[C@@H]1O (stereo partly shown) [glucosamine]
S. cerevisiae
  mutant in the affected pathway whose profile the profile caused by the inhibitory compound resembles: gas1
  clustering of treatment profile with profiles from cell wall related mutants gas1Δ, spf1Δ, and amp1Δ: form a discrete cluster together with

## CCCCOc1ccc(C(=O)CCN2CCCCC2)cc1 [dyclonine]
[1]
  sterol accumulating in treated cells and enzyme inferred to be inhibited (GC analysis): buildup of fecosterol, indicating inhibition of Erg2p
  sterol content of treated cells (GC analysis): abnormal
S. cerevisiae; six hour treatment with 0.063% dyclonine (FIG. 11E)
  expression profile of drug-treated yeast compared with the compendium profiles: correlates most closely with the response profile obtained from a cell line in which the erg2p gene has been “knocked out.”; also recorded: most closely resembled profiles resulting from perturbation of the ergosterol pathway
